Test results: EP0198508A1, “L-phosphoserine salts, a process for the preparation thereof and pharmaceutical compositions containing them” (LABORATORI PROPHIN S.p.A., priority 1985, dated 1986)
Counter-ions that a name gives are not always drawn. Marks after values point to notes of the source that are not given here.

Key:
Wistar rats [1] = assay: Shuttle box test: acquirement of conditioned avoidance responses (CARs); type: in vivo; details: for CARs: mean + ES; for effect on number of conditioned responses and percentage of learners (in words): young and elderly rats, PR 156 tested only on young rats
Procedure: (§1) Male young and elderly Wistar rats, weighing respectively […] and 580 g, were used.
(§2) The test compounds, dissolved in physiological saline, were administered orally to young and elderly animals, at doses of 5, lO and 20 mg/kg. Phosphoserine dissolved in physiological saline was administered at equimolecular doses (1.8, 3.6 and 7.2 mg/kg). The control animals were administered with the sole vehicle. The administrations were carried out once a day during 20 days, the last administration being effected 1 hour before the tests.
The following behavioral tests were carried out: • 1) Shuttle box test: to evaluate the acquirement of conditioned avoidance responses (CARs).

elderly rats = assay: Despair test: antidepressant activity; type: in vivo, Wistar rats; details: for DURATION OF STILLNESS: Elderly rats, mean + SEM; for effect on stillness (in words): summary in text of Table 3, elderly rats
Procedure: as §1, §2
3. Despair test: to estimate the antidepressant activity on the elderly rats.

Wistar rats [2] = assay: Dark box test: effect on memory capability; type: in vivo; details: for LATENCY (seconds): averages; for effect on acquirement of avoidance responses (in words): summary of Table 2, young and elderly rats
Procedure: as §1, §2
2. Dark box test: to further evaluate the effect on memory capability of the animals.

[3] = Young rats, 5 mg/kg orally once a day during 20 days, 5 mg/kg
[4] = Young rats, 10 mg/kg orally once a day during 20 days, 10 mg/kg
[5] = Elderly rats, 5 mg/kg orally once a day during 20 days
[6] = Elderly rats, 10 mg/kg orally once a day during 20 days
[7] = Elderly rats, 20 mg/kg orally once a day during 20 days
[8] = Young rats, 20 mg/kg orally once a day during 20 days
[9] = Elderly rats, 1.8 mg/kg orally once a day during 20 days
[10] = Elderly rats, 3.6 mg/kg orally once a day during 20 days
[11] = Elderly rats, 7.2 mg/kg orally once a day during 20 days
[12] = Young rats, 1.8 mg/kg orally once a day during 20 days
[13] = Young rats, 3.6 mg/kg orally once a day during 20 days
[14] = Young rats, 7.2 mg/kg orally once a day during 20 days

## N[C@@H](COP(=O)(O)O)C(=O)O [PR 156, L-Phosphoserine salt with L-Arginine 1:2]
Wistar rats [1]; [3]
  LEARNERS (%): 100.0%
  CARs: 23.4 + 1.9**
Wistar rats [1]; [4]
  LEARNERS (%): 100.0%
  CARs: 24.0 + 1.8**
Wistar rats [1]
  effect on number of conditioned responses and percentage of learners (in words): proved also to be effective

## N[C@@H](COP(=O)(O)O)C(=O)O [PR 157, L-Phosphoserine salt with L-Arginine and L-Lysine]
Elderly rats; 5 mg/kg orally once a day during 20 days
  DURATION OF STILLNESS: 280.2 + 20.3*
Elderly rats; 10 mg/kg orally once a day during 20 days
  DURATION OF STILLNESS: 263.1 + 33.4*
Elderly rats; 20 mg/kg orally once a day during 20 days
  DURATION OF STILLNESS: 236.7 + 28.9*
Elderly rats
  effect on stillness (in words): showed a dose-related reduction in the stillness of the elderly rats
Wistar rats [1]; [5]
  LEARNERS (%): 25.0%
  CARs: 7.9 + 0.3*
Wistar rats [1]; [6]
  LEARNERS (%): 50.0** %
  CARs: 11.5 + 0.3*
Wistar rats [1]; [7]
  LEARNERS (%): 50.0** %
  CARs: 18.6 + 0.4*
Wistar rats [1]; [3]
  LEARNERS (%): 50.0%
  CARs: 19.4 + 0.4*
Wistar rats [1]; [4]
  LEARNERS (%): 75.0** %
  CARs: 22.2 + 1.4*
Wistar rats [1]; [8]
  LEARNERS (%): 100.0** %
  CARs: 24.4 + 1.4*
Wistar rats [1]
  effect on number of conditioned responses and percentage of learners (in words): caused an increase in the number of conditioned responses as well as in the percentage of learners, both in young and elderly animals
Wistar rats [2]; [5]
  LATENCY (seconds): (12) 46.0* seconds
Wistar rats [2]; [6]
  LATENCY (seconds): (12) 79.4* seconds
Wistar rats [2]; [7]
  LATENCY (seconds): (12) 82.0* seconds
Wistar rats [2]; Young rats, 5 mg/kg orally once a day during 20 days
  LATENCY (seconds): (12) 112.3* seconds
Wistar rats [2]; Young rats, 10 mg/kg orally once a day during 20 days
  LATENCY (seconds): (12) 161.5* seconds
Wistar rats [2]; [8]
  LATENCY (seconds): (12) 265.1* seconds
Wistar rats [2]
  effect on acquirement of avoidance responses (in words): caused a dose-related improvement in the acquirement of avoidance responses both in young and elderly animals

## N[C@@H](COP(=O)(O)O)C(=O)O [Phosphoserine]
Elderly rats; 1.8 mg/kg orally once a day during 20 days
  DURATION OF STILLNESS: 301.0 + 31.4*
Elderly rats; 3.6 mg/kg orally once a day during 20 days
  DURATION OF STILLNESS: 291.7 + 32.7*
Elderly rats; 7.2 mg/kg orally once a day during 20 days
  DURATION OF STILLNESS: 265.8 + 24.7*
Elderly rats
  effect on stillness (in words): showed a dose-related reduction in the stillness of the elderly rats
Wistar rats [1]; [9]
  LEARNERS (%): 25.0%
  CARs: 5.9 + 0.4*
Wistar rats [1]; [10]
  LEARNERS (%): 37.5* %
  CARs: 6.2 + 0.5*
Wistar rats [1]; [11]
  LEARNERS (%): 37.5** %
  CARs: 9.2 + 0.6*
Wistar rats [1]; [12]
  LEARNERS (%): 50.0%
  CARs: 16.1 + 0.5
Wistar rats [1]; [13]
  LEARNERS (%): 50.0%
  CARs: 17.6 + 0.5
Wistar rats [1]; [14]
  LEARNERS (%): 75.0%
  CARs: 17.2 + 0.6
Wistar rats [1]
  effect on number of conditioned responses and percentage of learners (in words): caused similar effects on the elderly animals only
Wistar rats [2]; [9]
  LATENCY (seconds): (12) 34.8 seconds
Wistar rats [2]; [10]
  LATENCY (seconds): (12) 50.7* seconds
Wistar rats [2]; [11]
  LATENCY (seconds): (12) 65.0* seconds
Wistar rats [2]; [12]
  LATENCY (seconds): (12) 97.5* seconds
Wistar rats [2]; [13]
  LATENCY (seconds): (12) 110.2* seconds
Wistar rats [2]; [14]
  LATENCY (seconds): (12) 186.0* seconds
Wistar rats [2]
  effect on acquirement of avoidance responses (in words): proved to be effective only on the elderly animals
